The values below come from patent US12383158B2, “Detection of high-risk unstable atherosclerotic plaque” (The Heart Research Institute Ltd, priority 2018, dated 2025).

Data set [1] deals with T1, MPO activity in atherosclerotic plaque (Mus musculus, UniProt P11247).
T1 sequence (P11247 139-718): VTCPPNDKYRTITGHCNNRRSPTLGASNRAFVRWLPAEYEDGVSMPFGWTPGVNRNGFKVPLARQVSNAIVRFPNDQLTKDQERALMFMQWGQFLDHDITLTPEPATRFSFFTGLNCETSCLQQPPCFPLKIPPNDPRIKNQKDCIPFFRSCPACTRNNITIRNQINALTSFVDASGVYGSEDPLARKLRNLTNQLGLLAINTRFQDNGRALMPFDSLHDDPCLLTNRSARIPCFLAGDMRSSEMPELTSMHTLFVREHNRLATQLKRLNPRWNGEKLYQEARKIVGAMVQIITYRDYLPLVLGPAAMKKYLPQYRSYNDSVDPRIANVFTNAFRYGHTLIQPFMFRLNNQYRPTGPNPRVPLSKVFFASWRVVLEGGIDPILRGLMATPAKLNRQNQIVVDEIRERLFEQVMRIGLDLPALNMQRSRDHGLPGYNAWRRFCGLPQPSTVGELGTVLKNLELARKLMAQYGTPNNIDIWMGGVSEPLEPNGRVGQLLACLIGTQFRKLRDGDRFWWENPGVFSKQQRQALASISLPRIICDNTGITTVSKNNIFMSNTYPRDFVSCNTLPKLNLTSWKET
Particulars: for CNR of unstable plaque in the right carotid artery, 30 min after contrast injection / CNR of unstable plaque in the right carotid artery, 60 min after contrast injection: mean±SD.
Excerpt: Scheme of action of bis-5HT-DTPA-Gd (MPO-Gd) and magnetic resonance imaging protocol. A, In the presence of H2O2, MPO oxidises the 5-hydroxytryptamine moiety of MPO-Gd to a phenoxyl radical, which then can give rise to either an MPO-Gd dimer or multimer (not shown) to amplify the signal. The phenoxyl radical-containing MPO-Gd may also covalently bind to proteins. […] B, Mice were imaged under isoflurane anaesthesia. Initial acquisition involved a localiser, time-of-flight and T1-weighted turbo spin echo (T1-TSE) imaging. Approximately 30 μmin after acquisition of baseline images, MPO-Gd (0.3 mmol/kg) was injected intravenously via the tail vein. Consecutive T1-TSE images were then acquired for 60 μmin following contrast injection. Segmental analysis of MPO activity was assessed by calculating the ΔCNR (CNRpost-contrast−CNRpre-contrast) for unstable and stable plaque, and non-diseased arterial segments.
At 7 weeks following TS surgery, isoflurane-anaesthetised mice were imaged in the prone position using a 9.4T Bruker Biospec 94/20 Avance III system (Bruker, Ettlingen, Germany) with a 50-mm quadrature radiofrequency coil and respiratory-gated image acquisition. Mice were imaged before and after intravenous administration of 0.3 μmmol/kg of the MPO sensor bis-5-hydroxytryptamide-DTPA Gd (MPO-Gd) or DTPA-Gd (Magnevist, Bayer, Leverkusen, Germany) via a tail vein catheter. Prior to contrast injection, a flow-compensated 2D-FLASH time-of-flight (TOF) angiography in a coronal slice orientation was performed to assess intra-vessel (luminal) volume and geometry using a flow compensated 2D-GRE sequence (FLASH) for time-of-flight (TOF) angiography in an axial slice orientation with the following major parameters: TR 34 μms, TE 3 μms, slice thickness 0.5 μmm, interslice distance 0.35 μmm, 40 slices, matrix size 128×128, FOV 20×20 μmm, in-plane resolution 156×156 μm. This was followed by a T1-weighted fast spin echo (TurboRARE, T1-TSE) acquired in the same orientation with the following parameters: TR 1500 μms, TE 8.5 μms, ETL 8, slice thickness 1 μmm, FOV 20×20 μmm, matrix size 192×192, in-plane resolution 104×104 μm. This T1-TSE protocol was then repeated in a scan series covering a period of one hour following contrast injection to assess contrast agent inflow and retention. OsiriX (Version 7.0, Pixmeo, Switzerland) was used for image analysis. In T1-TSE images, separate regions of interest were assigned to the vessel wall, skeletal muscle (reference) and background (air). The contrast-to-noise ratio (CNR) was calculated as follows: CNR=(SIvessel wall−SIskeletal muscle)/SDbackground The mean CNRs of three consecutive slices in plaque with unstable phenotype and corresponding segments of the left carotid artery (plaque-free), in addition to 1-2 consecutive slices in the brachiocephalic trunk (stable plaque, SP), were calculated. Segmental enhancement attributable to MPO was assessed by calculating the ΔCNR=CNRpost-contrast−CNRpre-contrast.

The conditions of data set [2]: mouse, in vivo.
Description: Nuclear microscopy experiments were performed at the Centre for Ion Beam Applications at the National University of Singapore, as described previously.6 Briefly, the samples were mounted onto a 3-axis stage within a scattering chamber maintained at <5×10−6 μmbar. A collimated proton beam (H+) at 2.1 MeV was generated using a 3.5 MV Singletron accelerator and kept incident onto the samples inclined at 45 degrees to the incident beam. The broad incident ion beam was focused down to a spot size of 1 μm and scanned across the region of interest. […]
PIXE data was collected using a Si(Li) detector placed at 20 μmm from the samples to the Si(Li) crystal face. RBS and STIM data were measured by a passivated implanted planar silicon (PIPS) detector. […]
Scanning transmission ion microscopy provides structural maps based on the energy lost by the protons as they pass through the relatively thin organic samples with thicknesses of 30 μm or less, enabling structural identification without fixing or staining. Trace elemental mapping was performed using particle-induced X-ray emission, which simultaneously provides multiple elements with high quantitative accuracy and sensitivity to a few parts per million in biological materials. […]
The mark [3] stands for this setting: TS Apoe−/− mice, 0.3 mmol/kg i.v.

With `CNC[C@H](O)[C@@H](O)[C@H](O)[C@H](O)CO.CNC[C@H](O)[C@@H](O)[C@H](O)[C@H](O)CO.O=C([O-])CN(CCN(CC(=O)[O-])CC(=O)O)CCN(CC(=O)[O-])CC(=O)O.[Gd+3]` [DTPA-Gd], in data set [1] (setting [3]), the “CNR of unstable plaque in the right carotid artery, 30 min after contrast injection” value was found to be 19.2±7.2 and the “CNR of unstable plaque in the right carotid artery, 60 min after contrast injection” value is 13.4±3.6.

As for `O=C([O-])CN(CCN(CC(=O)[O-])CC(=O)NCCc1c[nH]c2ccc(O)cc12)CCN(CC(=O)[O-])CC(=O)NCCc1c[nH]c2ccc(O)cc12.[Gd+3]` [MPO-Gd, bis-5-hydroxytryptamide-DTPA Gd], the “Gd content of unstable plaque” value in data set [2] is reported as “significant accumulation of Gd”. Further, in data set [1] (60 min, compared with Apoe−/− mice), the “enhancement of the right carotid artery in TS Mpo−/−Apoe−/− mice” value is on record as “attenuated enhancement”. Besides, in data set [1] (setting [3]), the “enhancement of the brachiocephalic artery (stable plaque)” value was “did not result in significant sustained enhancement”; the “enhancement of the non-diseased vessel wall of the left carotid artery” value is “no significant enhancement”; the “CNR of unstable plaque in the right carotid artery, 30 min after contrast injection” value was 23.7±6.8; the “CNR of unstable plaque in the right carotid artery, 60 min after contrast injection” value was 25±6.4. In addition, the “period within which the enhancing material is washed out/eliminated from Segment I” value in data set [1] (mouse, in vivo) is given as below 2 weeks. The “plaque specificity of enhancement 1 week after TS surgery” value in data set [1] (unstable plaque (Segment I) vs stable plaque (brachiocephalic artery)) is “seen only in unstable plaque”.
